Experimental data: patent US9376705B2, “Method for detecting susceptibility of microorganisms to chemical agents” (Idmic SA, priority 2012, dated 2016)

Key:
Assay type in all cases: cell-based
[1] = tested on: Citrobacter ssp strain susceptible to ampicillin and ceftriaxone; assay: Susceptibility testing by MALDI-TOF mass spectra of culture supernatant, Citrobacter ssp strain susceptible to ampicillin and ceftriaxone; conditions: treatment with 8 mg/L, FIG. 4
Description: (§1) In a first process step 10, approximately ten colonies of microorganisms of the bacterial type Enterobacteriaceae are added to 1 mL of a liquid Müller-Hinton broth nutrient medium. The turbidity of the microorganisms in the liquid nutrient medium is 0.5 on McFarland standards, corresponding to approximately 1.5×10^8 colony forming units/mL.
(§2) In a second process step 20, 5 μL of 5-25 mM, especially 25 mM of a water-soluble salt of malic acid or ascorbic acid, for example sodium malate as an enhancer for Enterobacteriaceae family bacteria is added into the liquid nutrient medium. The enhancer may also be added into the liquid nutrient medium in solid form.
(§3) In a third process step 30, the microorganisms in the nutrient medium are pre-incubated at 37° C. for 30 minutes.
(§4) In a fourth process step 40, a quantity of a chemical agent or antibiotic equal to the threshold level of the given microorganism according to the Clinical and Laboratory Standards Institute is added to the microorganisms in the liquid nutrient medium.
(§5) In a fifth process step 50, the microorganisms in the nutrient medium are incubated at 37° C. for 60 minutes.
(§6) In a sixth process step 60, the microorganisms are removed from the nutrient medium by centrifugation at 10′000 g or 15′000 g for 5 minutes at room temperature. The remaining supernatant is collected in a new experimental tube. […]

[2] = tested on: Escherichia coli strain susceptible to ampicillin and ceftriaxone; assay: Susceptibility testing by MALDI-TOF mass spectra of culture supernatant, Escherichia coli strain susceptible to ampicillin and ceftriaxone; conditions: treatment with 8 mg/L; susceptible E. coli strain; FIG. 2
Description: as §1, §2, §3, §4, §5, §6

[3] = tested on: Escherichia coli strain resistant to ampicillin and ceftriaxone; assay: Susceptibility testing by MALDI-TOF mass spectra of culture supernatant, Escherichia coli strain resistant to ampicillin and ceftriaxone; conditions: treatment with 8 mg/L; resistant E. coli strain; FIG. 3
Description: as §1, §2, §3, §4, §5, §6

Row | SMILES | effect on bacteria as seen in mass spectrum of supernatant (protein/peptide signals) [1] | effect on bacteria as seen in mass spectrum of supernatant (protein/peptide signals) [2] | effect on bacteria as seen in mass spectrum of supernatant (protein/peptide signals) [3]
1 | CC1(C)S[C@@H]2[C@H](NC(=O)[C@H](N)c3ccccc3)C(=O)N2[C@H]1C(=O)O [ampicillin] | has been destroyed | has been destroyed | no further significant signal
2 | CO/N=C(\C(=O)N[C@@H]1C(=O)N2C(C(=O)O)=C(CSc3nc(=O)c(=O)[nH]n3C)CS[C@H]12)c1csc(N)n1 [ceftriaxone] | has been destroyed | has been destroyed | no further significant signal
